From patent US20250177349A1, “ARYL ALKYNAMIDE DERIVATIVES” (Astellas Pharma, Inc., priority 2022, published 2025)

System: drug-induced Sjogren's syndrome-like salivary dysfunction
Assay: Test on drug-induced Sjogren's syndrome-like salivary dysfunction in mice
Type: in vivo
Settings: female C57BL/6J mice, DMXAA 20 mg/kg s.c. four times weekly, test compound orally once a day for 8 days; FIGS. 1-3
Description: Female C57BL/6J mice (8-10-weeks-old) were injected subcutaneously with 20 mg/kg of DMXAA or its vehicle, 5% NaHCO3, four times at weekly intervals. From the day after the last DMXAA challenge, mice were orally administered the test compound or its vehicle once a day for 8 days. On the following day, saliva was collected from mice using a cotton swab under awake conditions, and saliva weight during 15 min was measured and evaluated as an indicator of salivary gland function.

Structure (SMILES) | saliva production (saliva weight during 15 min)
O=C(C#Cc1ccc(-c2ccccc2)c(C(F)(F)F)c1)N1C[C@@H](O)[C@@H](O)C1 [Example 33, 1-[(3R,4S)-3,4-dihydroxypyrrolidin-1-yl]-3-[2-(trifluoromethyl)[1,1′-biphenyl]-4-yl]prop-2-yn-1-one] | significantly improved saliva production
NC(=O)C1CCN(C(=O)C#Cc2ccc(-c3ccccc3)c(C(F)(F)F)c2)CC1 [Example 34, 1-{3-[2-(trifluoromethyl)[1,1′-biphenyl]-4-yl]prop-2-ynoyl}piperidine-4-carboxamide] | significantly improved saliva production
N=S1(=O)CCN(C(=O)C#Cc2ccc(-c3ccccc3)c(C(F)(F)F)c2)CC1 [Example 99, 1-imino-4-{3-[2-(trifluoromethyl)[1,1′-biphenyl]-4-yl]prop-2-ynoyl}-1λ^6-thiomorpholin-1-one] | significantly improved saliva production
